The text below walks through data of PMC4979471 (Cell Death Discovery, 2015).

Each structure is given as a SMILES string. “Also recorded” adds a separate entry of the source. Read-outs that look alike come from different tables or passages of the source.

For series [1], the target named is T1, RIP1 (ATP-binding pocket) (Homo sapiens, UniProt Q13546).
T1 construct: GST-RipK1 (1–375) was purified; made in house
T1 sequence (Q13546 1-375): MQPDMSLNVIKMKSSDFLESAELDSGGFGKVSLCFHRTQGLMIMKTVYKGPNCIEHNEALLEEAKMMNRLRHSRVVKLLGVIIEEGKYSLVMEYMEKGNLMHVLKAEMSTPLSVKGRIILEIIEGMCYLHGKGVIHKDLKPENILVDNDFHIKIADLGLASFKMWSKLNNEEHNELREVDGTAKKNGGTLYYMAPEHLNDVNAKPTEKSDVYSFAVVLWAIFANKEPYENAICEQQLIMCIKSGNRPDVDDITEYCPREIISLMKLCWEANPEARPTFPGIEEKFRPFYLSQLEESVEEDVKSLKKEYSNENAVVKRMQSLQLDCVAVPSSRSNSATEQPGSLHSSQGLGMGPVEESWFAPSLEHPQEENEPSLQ
In words: Fluorescent polarization (FP) binding assay. The procedure:
A FP-based binding assay was developed to quantitate interaction of novel test compounds at the ATP-binding pocket of RIP1, by competition with a fluorescently labeled ATP-competitive ligand, as previously described.[18] In brief, GST-RipK1 (1–375) was purified and was used at a final assay concentration of 10 nM.

The next series deals with T2, RIP1 kinase (Homo sapiens, UniProt Q13546).
T2 construct: 10 nM GST-RIPK1 (1–375) and 50 μM ATP; made in house
Put plainly: ADP-Glo kinase assay. The series is classed as biochemical. The procedure: Compound potency against RIP1 kinase activity was determined using an ADP-Glo luminescence assay, which measures the conversion of ATP to ADP as previously described.[18] In brief, the primary reaction consisted of 10 nM GST-RIPK1 (1–375) and 50 μM ATP in 50 mM HEPES pH 7.5, 50 mM NaCl, 30 mM MgCl2, 1 mM DTT, 0.5 mg/ml BSA, and 0.02% CHAPS. Five microliter of enzyme and 5 μl of ATP were added to the plate at twice the final assay concentration and incubated at room temperature for 4 h. The luminescence was measured on a plate reader. Test compound inhibition was expressed as percent inhibition of internal assay controls.
In general terms: In ADP-Glo the light output rises with the ADP produced.

Another series has as its system C57BL/6 mice. Put plainly: TNF+zVAD-induced shock model (temperature loss). The series is classed as in vivo, mouse. The following applies: 15 min before TNF+zVAD. The procedure:
Temperature was monitored over the course of 3 h by rectal probe.

The test system of series [2] is indoleamine-2,3-dioxygenase (IDO). The following applies: cited from earlier work.
The test system of series [3] is mouse fibrosarcoma L929 cells. In words: TNF+zVAD-induced necroptosis, CellTiter-Glo. The class given is cell-based. The settings on record: overnight, read-out: IC50 blocking necroptosis. As for the experimental part: (§1) Mouse fibrosarcoma L929 cells (ATCC# CCL-1) and human monocytic U937 cells (ATCC# CRL-1593.2) were cultured in RPMI media supplemented with 10% heat-inactivated FBS, 100 U/ml penicillin and […] streptomycin. BMDM were prepared from C57BL/6 mice by differentiation with 10 ng/ml M-CSF (R&D Systems) for 7 days and cultured in DMEM medium supplemented with 10% heat-inactivated FBS, 100 U/ml penicillin, 100 μg/ml streptomycin and 0.25 μg/ml amphotericin. Primary human neutrophils were isolated from human blood following the standard method comprised of sequential sedimentation in dextran, density centrifugation in Ficoll–Hypaque and lysis of contaminating red blood cells.
(§2) […] To evaluate the effect of RIP1 inhibitors, cells were pretreated with compound (dose–response) for 30 min. Induced cell death was evaluated 19–21 h later by measuring cellular ATP levels using CellTiter-Glo Luminescent Cell Viability assay (Promega, Fitchburg, WI, USA). To induce necroptosis in neutrophils, freshly isolated human neutrophils were stimulated with TNF (10 ng/ml), QVD-Oph (50 μM) and SMAC mimetic (100 nM). Induced cell death was evaluated as above.
On the technique in general: ATP-based viability assays read luminescence as a measure of living cells.

Series [4] relates to human monocytic U937 cells. Put plainly: TNF+zVAD-induced necroptosis, CellTiter-Glo. The series is classed as cell-based. The following applies: U-937, U937, overnight, read-out: IC50 blocking necroptosis. The procedure: as §1, §2
The target of the next series is T3, recombinant human IDO (Homo sapiens, UniProt P14902).
T3 construct: purchased R&D Systems (Minneapolis, MN, USA)
T3 sequence (P14902 whole entry): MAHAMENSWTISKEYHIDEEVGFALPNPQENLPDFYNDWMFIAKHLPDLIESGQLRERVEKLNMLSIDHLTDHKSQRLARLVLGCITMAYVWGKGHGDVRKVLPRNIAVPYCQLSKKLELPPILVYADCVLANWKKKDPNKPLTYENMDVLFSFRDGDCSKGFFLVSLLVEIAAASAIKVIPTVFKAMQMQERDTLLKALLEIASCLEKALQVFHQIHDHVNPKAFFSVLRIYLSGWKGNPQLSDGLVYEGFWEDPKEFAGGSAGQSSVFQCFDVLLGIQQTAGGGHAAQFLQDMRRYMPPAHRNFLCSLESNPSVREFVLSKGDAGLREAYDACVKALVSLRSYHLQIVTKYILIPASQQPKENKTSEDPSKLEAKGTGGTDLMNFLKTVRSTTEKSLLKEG
In words: IDO enzymatic assay. The class given is biochemical. The following applies: in vitro enzymatic assay.

A short description of series [5]: Pharmacokinetic profile after i.p. administration. The series is classed as in vivo, C57BL/6 mice. The settings on record: 10 mg/kg i.p., mice. The procedure: Briefly, pharmacokinetic studies were conducted using n=3 animals per group for each compound. […] Blood samples were obtained at various time points following intraperitoneal injection and diluted 1 : 1 with water prior to storage at −80 °C.
Prior to bioanalysis, samples were thawed and each analyte was isolated using a method based on protein precipitation. The resulting supernatant was injected into an LC/MS/MS system optimized for detection of the compound of interest. Data were reported as quantitative drug concentrations as determined by standard calibration curve analysis. Using these optimized conditions, the typical lower limit of quantitation achieved was 1.00 ng/ml for both compounds.

For series [6] the following is noted: cited from earlier work.

For orientation: IC50 means the point on the concentration scale where inhibition reaches its midpoint.

Procedure for recombinant human IDO: IDO activity was determined as described by Takahashi et al.[25] using recombinant human IDO purchased from R&D Systems (Minneapolis, MN, USA). The yellow pigment derived from kynurenine was measured at 490 nm using the Spectramax microplate reader (Molecular Devices).

Take `CC(C)(C)C(=O)N1N=CC[C@@H]1c1ccccc1` [GSK′962]: the “activity in the FP binding assay” value in series [1] was “no activity”. Moreover, at RIP1 kinase, the “activity in blocking RIP1 kinase activity” value was “inactive”. Further, the “protection from TNF+zVAD-induced temperature loss” value in the series on C57BL/6 mice (20 mg/kg i.p.) was “no effect”.

As for `CN1C(=O)C(Cc2c[nH]c3ccccc23)NC1=S` (stereo not shown) [Nec-1, Necrostatin-1, reference compound], the IDO inhibition entry in series [2] (ref 22) is “known to inhibit”; in series [2] (ref 25), “potent inhibitor”. The half-inhibitory concentration (IC50) in series [3] is 1 µM; in [4] it was 2 µM; in [1], 2 µM; on RIP1 kinase (read-out: IC50 blocking RIP1 kinase activity), 1 µM. Besides, in [1], the “drop off in potency relative to GSK′963 in the FP binding assay” value was ~ 70 fold. Further, the “effect on IDO activity” value at recombinant human IDO is “no effect”. The “exposure compared with GSK′963” value in series [5] is ~ 10 fold. Moreover, the “protection from TNF+zVAD-induced temperature loss” value in the series with C57BL/6 mice (0.2 mg/kg i.p.) is recorded as “no effect”; in the series on C57BL/6 mice (2 mg/kg i.p.), “minimal level of protection; also recorded: no significant protection”. Moreover, the in vivo half-life entry in series [6] (ref 23) is “short”. Moreover, the metabolic stability entry in [6] (ref 23) is “quite limited”.

Regarding `CN1C(=O)NC(Cc2c[nH]c3c(Cl)cccc23)C1=O` (stereo not shown) [Nec-1s, 7-Cl-O-Nec-1], the IDO activity result in [2] (ref 24) is “lacks IDO activity”. The pharmacokinetic properties result in series [6] (ref 24) is “improved pharmacokinetic properties”.

Regarding `CC1=CC(=O)c2ccccc2C1=O` [menadione, reference compound], on recombinant human IDO, the “effect on IDO activity” value is “inhibited enzyme activity with the expected potency”.
